# Data as given in patent US20180312473A1, “PHENAZINE DERIVATIVES AS ANTIMICROBIAL AGENTS” (priority 2015, published 2018).
# Read-outs that look alike come from different tables or passages of the source.
# Legend:
# [1] = test system: MRSA-2 planktonic cells and biofilms; assay: Calgary Biofilm Device (CBD) assay, MBC/MBEC; format: cell-based, Staphylococcus aureus
# human red blood cells = assay: Hemolysis assay with red blood cells
# Description: The hemolysis activities of select compounds of the invention were determined. […] The washing was repeated three times with the buffer. In 96-well plate, test compounds were added to the buffer from DMSO stocks. […] The plate was then incubated for 1 hour at 37° C. After incubation, the plate was centrifuged for 5 minutes at 3,500 rpm. Then 80 μL of the supernatant was transferred to another 96-well plate, and the optical density (OD) was read at 405 nm. DMSO served as the negative control (0% hemolysis), while Triton X served as the positive control (100% hemolysis). The percent of hemolysis was calculated as (OD405 of the compound−OD405 of DMSO)/(OD405 of Triton X−OD405 of the buffer).
# The washing was repeated three times with the buffer. In 96-well plate, test compounds were added to the buffer from DMSO stocks. […] The plate was then incubated for 1 hour at 37° C. After incubation, the plate was centrifuged for 5 minutes at 3,500 rpm. Then 80 μL of the supernatant was transferred to another 96-well plate and the optical density (OD) was read at 405 nm. DMSO served as our negative control (0% hemolysis) while Triton X served as our positive control (100% hemolysis). The percent of hemolysis was calculated as (OD405 of the test compound−OD405 DMSO)/(OD405 Triton X−OD405 buffer) from three independent experiments.
# [2] = test system: MRSE (S. epidermidis ATCC 35984) planktonic cells and biofilms; assay: Calgary Biofilm Device (CBD) assay, MBC/MBEC; format: cell-based, Staphylococcus epidermidis; conditions: Table 8; for MBC: Staphylococcus epidermidis, read-out: MRSE 35984 MBC
# [3] = test system: MRSA-1 (methicillin-resistant Staphylococcus aureus clinical isolate); assay: MIC assay (broth microdilution, CLSI); format: cell-based; conditions: Table 2A
# MRSA BAA-44 = assay: MIC assay (broth microdilution, CLSI); conditions: Staphylococcus aureus, read-out: MIC, MRSA BAA-44
# [4] = test system: MRSA-2 (methicillin-resistant Staphylococcus aureus clinical isolate); assay: MIC assay (broth microdilution, CLSI); format: cell-based; conditions: read-out: MIC, MRSA-2
# in vitro = format: cell-based; conditions: human
# Description: (§1) The cytotoxicities of select compounds of the invention against HeLa cells were determined. HeLa cytotoxicity was assessed using the LDH release assay described by CYTOTOX96 (Promega G1780). HeLa cells were grown in Dulbecco's Modified Eagle Medium (DMEM; Gibco) supplemented with 10% Fetal Bovine Serum (FBS) at 37° C. with 5% CO2. […] Triton X-100 (at 2% v/v) was used as the positive control for maximum lactate dehydrogenate (LDH) activity in this assay (e.g., complete cell death), while “medium only” lanes served as negative control lanes (e.g., no cell death). DMSO was used as the vehicle control. […] Finally, Stop Solution (50 μL) was added to the incubating plates, and the absorbance was measured at 490 nm.
# (§2) HeLa cytotoxicity was assessed using the LDH release assay described by CYTOTOX96 (Promega G1780). HeLa cells were grown in Dulbecco's Modified Eagle Medium (DMEM; Gibco) supplemented with 10% Fetal Bovine Serum (FBS) at 37° C. with 5% CO2. […] Triton X-100 (at 2% v/v) was used as the positive control for maximum lactate dehydrogenate (LDH) activity in this assay (e.g., complete cell death), while “medium only” lanes served as negative control lanes (e.g., no cell death). DMSO was used as our vehicle control. […] Finally, Stop Solution (50 μL) was added to the incubating plates and the absorbance was measured at 490 nm. Results are from three independent experiments (FIG. 19)
# HeLa cells = assay: in vitro; format: cell-based
# Description: as §1, §2
# [5] = test system: VRE (E. faecium ATCC 700221) planktonic cells and biofilms; assay: Calgary Biofilm Device (CBD) assay, MBC/MBEC; format: cell-based, Enterococcus faecium; conditions: Enterococcus; Table 8; c lowest concentration tested; read-out: VRE 700221 MBC
# [6] = test system: Staphylococcus epidermidis (ATCC 12228); assay: MIC assay (broth microdilution, CLSI); format: cell-based
# [7] = test system: Enterococcus faecium (ATCC 700221), VRE; assay: MIC assay (broth microdilution, CLSI); format: cell-based
# [8] = test system: Staphylococcus epidermidis (ATCC 35984), MRSE; assay: MIC assay (broth microdilution, CLSI); format: cell-based
# MRSA BAA-1707 = assay: MIC assay (broth microdilution, CLSI); conditions: Staphylococcus aureus, read-out: MIC, MRSA BAA-1707
# MRSA-2 = assay: MIC assay with Tiron or metal(II) cation co-treatment; format: cell-based, Staphylococcus aureus
# E. faecium 700221 (VRE) = assay: as above; format: cell-based, Enterococcus faecium
# S. epidermidis 12228 = assay: as above; format: cell-based, Staphylococcus epidermidis
# [9] = test system: M. tuberculosis H37Ra (ATCC 25177); assay: Mycobacterium tuberculosis MIC assay; format: cell-based; conditions: Mycobacterium tuberculosis
# Description: (§3) The culture was then diluted with fresh medium until an OD600 of 0.01 was reached. […] The final DMSO concentration was maintained at 0.5%. […] Three rows were reserved for each compound. […] OD600 absorbance was recorded using SPECTRAMAX M5 (Molecular Devices). Data obtained from three independent experiments were analyzed using Excel.
# as §3, with “EXCEL.” for “Excel.”
# [10] = Staphylococcus aureus, MRSA, Table 8, a/b 2-/4-fold range in independent experiments, read-out: MRSA-2 MBC
# [11] = Staphylococcus aureus, MRSA, Table 7, a midpoint of 2-fold range, b lowest concentration tested
# [12] = Staphylococcus epidermidis, ATCC12228, Table 7, b lowest concentration tested, read-out: MIC, S. epidermidis 12228
# [13] = Table 7, b lowest concentration tested, read-out: MIC, VRE 700221
# [14] = MRSA-2, + loss, − increase of activity
# [15] = E. faecium 700221, + loss, − increase of activity
# [16] = S. epidermidis 12228, + loss, − increase of activity
# [17] = Staphylococcus aureus, MRSA, Table 4, read-out: MBC, MRSA-2
smiles,measurement,setting,value
"N#CC(C#N)=NNc1cccc(Cl)c1 [CCCP, carbonyl cyanide m-chlorophenyl hydrazone, reference compound]",MBC,"[1]; Staphylococcus aureus, MRSA, Table 5, a/b midpoint of 2-/4-fold range, read-out: MRSA-2 MBC",31.3 µM
same,MBC,[1]; [10],31.3 µM
same,% Hemolysis at 200 μM,"human red blood cells; 200 μM, red blood cells",3.5%
same,% Hemolysis at 200 μM,"human red blood cells; Table 8, human red blood cells, 200 μM",3.5%
same,MBC,[2],31.3 µM
"O=C(O)c1cn(C2CC2)c2cc(N3CCNCC3)c(F)cc2c1=O [Ciprofloxacin, ciprofloxacin, reference compound]",% Hemolysis (200 μM),"human red blood cells; 200 μM, 1 h, 37 °C",1.8%
"Oc1c(I)cc(I)c2nc3ccccc3nc12 [Compound 4, 2,4,-Diiodo-1-hydroxyphenazine]","MIC, MRSA-1",[3],0.78 to 1.56 µM
same,MIC,MRSA BAA-44,3.13 µM
same,MIC,[4]; [11],3.13 µM
same,MIC,[4]; Table 2A,3.13 µM
same,IC50 at 24 h,in vitro,> 100 µM
same,IC50,HeLa cells,> 100 µM
same,MBC,[1]; [10],31.3 µM
same,"MBEC, MRSA-2",[1]; Table 4,93.8 µM
same,"MBEC:MBC ratio, MRSA-2",[1]; Table 4,3.0
same,MBC,"[1]; Table 4, read-out: MBC, MRSA-2",31.3 µM
same,MBC,[5],23.5 µM
same,MIC,[6]; [12],1.56 µM
same,MIC,"[6]; Table 2A, read-out: MIC, Staphylococcus epidermidis (ATCC 12228)",1.56 µM
same,MIC,"[7]; Table 2A, read-out: MIC, Enterococcus faecium (ATCC 700221)",6.25 µM
same,MIC,[7]; [13],6.25 µM
same,% Hemolysis (200 μM),human red blood cells,≤1%
same,% Hemolysis at 200 μM,"human red blood cells; human, 1 h, 200 μM, pH 7.2",≤1%
same,MBC,[2],31.3 µM
same,MIC,"[8]; Staphylococcus epidermidis, Table 7, read-out: MIC, MRSE 35984",1.17 µM
same,"MIC, Staphylococcus epidermidis (ATCC 35984)",[8]; Table 2A,0.78 to 1.56 µM
same,MIC,MRSA BAA-1707,3.13 µM
"Oc1cccc2cccnc12 [Compound 8-HQ, 8-hydroxyquinoline, reference compound]",effect of tiron co-treatment on antibacterial activity,MRSA-2; MRSA-2,complete loss of antibacterial activity
same,MIC,"MRSA-2; MRSA-2, 1 mM Tiron, read-out: MIC with Tiron",>100 µM
same,MIC,"MRSA-2; MRSA-2, no additive (Table 9), read-out: MIC",6.25 µM
same,Fold Δ (Cu^2+),MRSA-2; [14],n.a. (insignificant changes in MIC values (<2-fold changes))
same,Fold Δ (Fe^2+),MRSA-2; [14],n.a. (insignificant changes in MIC values (<2-fold changes))
same,Fold Δ (Tiron),MRSA-2; [14],+16
same,Fold Δ (MIC with Tiron vs MIC),"MRSA-2; MRSA-2, + loss, − increase of antibacterial activity",+16
same,MIC,"MRSA-2; Staphylococcus aureus, MRSA",6.25 µM
same,MIC,"MRSA-2; Staphylococcus aureus, MRSA, read-out: MIC with Cu^2+",3.13 µM
same,MIC,"MRSA-2; Staphylococcus aureus, MRSA, read-out: MIC with Fe^2+",6.25 µM
same,MIC,"MRSA-2; Staphylococcus aureus, MRSA, read-out: MIC with Tiron",> 100 µM
same,MIC,E. faecium 700221 (VRE),18.8 µM
same,Fold Δ (Cu^2+),E. faecium 700221 (VRE); [15],n.a. (insignificant changes in MIC values (≤2-fold changes))
same,Fold Δ (Tiron),E. faecium 700221 (VRE); [15],>+12
same,MIC,"E. faecium 700221 (VRE); Enterococcus faecium, VRE",18.8 µM
same,MIC,"E. faecium 700221 (VRE); Enterococcus faecium, VRE, read-out: MIC with Cu^2+",18.8 µM
same,MIC,"E. faecium 700221 (VRE); Enterococcus faecium, VRE, read-out: MIC with Tiron",> 100 µM
same,Fold Δ (MIC with Tiron vs MIC),"E. faecium 700221 (VRE); VRE 700221, + loss, − increase of activity",>+12
same,MIC,E. faecium 700221 (VRE); read-out: MIC with Tiron,> 100 µM
same,MIC,"S. epidermidis 12228; S. epidermidis 12228, 1 mM Tiron, read-out: MIC with Tiron",>100 µM
same,MIC,"S. epidermidis 12228; S. epidermidis 12228, no additive, read-out: MIC",3.13 µM
same,Fold Δ (Cu^2+),S. epidermidis 12228; [16],n.a. (insignificant changes in MIC values (≤2-fold changes))
same,Fold Δ (MIC with Tiron vs MIC),S. epidermidis 12228; [16],>+32
same,Fold Δ (Tiron),S. epidermidis 12228; [16],>+32
same,MIC,"S. epidermidis 12228; Staphylococcus epidermidis, 12228",3.13 µM
same,MIC,"S. epidermidis 12228; Staphylococcus epidermidis, 12228, read-out: MIC with Cu^2+",3.13 µM
same,MIC,"S. epidermidis 12228; Staphylococcus epidermidis, 12228, read-out: MIC with Tiron",> 100 µM
"Oc1c(I)cc(Br)c2nc3ccccc3nc12 [Compound 10, 4-Bromo-2-iodo-1-hydroxyphenazine]",MBC,[1]; [17],46.9 µM
same,MBC,[1]; [10],46.9 µM
same,MIC,"[7]; Enterococcus faecium, Table 2A, read-out: MIC, Enterococcus faecium (ATCC 700221)",6.25 µM
same,MIC,[7]; [13],6.25 µM
same,% Hemolysis (200 μM),"human red blood cells; human, 1 h, 200 μM, pH 7.2",1.3%
same,% Hemolysis at 200 μM,"human red blood cells; human, 1 h, 200 μM, pH 7.2",1.3%
same,melting point,,188 to 190 °C
"C=CCc1cc(Br)c2nc3ccccc3nc2c1O [Compound 23, 2-Allyl-4-bromo-1-hydroxyphenazine]",MIC,[4]; [11],> 100 µM
same,MIC,[6]; [12],> 100 µM
same,MIC,[7]; [13],> 100 µM
"O=C(O)CN(CCN(CC(=O)O)CC(=O)O)CC(=O)O [EDTA, ethylenediaminetetraacetic acid, reference compound]",% Hemolysis at 200 μM,"human red blood cells; human, 1 h, 200 μM, pH 7.2",3.0%
same,MBC,[2],1000 µM
same,MRSE 35984 MBEC,[2],> 2000 µM
"CC(=O)N[C@@H](CS)C(=O)O [NAC, N-acetyl cysteine, reference compound]",MBC,[1]; [17],> 2000 µM
same,MBC,[1]; [10],> 2000 µM
same,MBC,[5],> 2000 µM
same,MBC,[2],> 2000 µM
"CO[C@H]1/C=C/O[C@@]2(C)Oc3c(C)c(O)c4c(O)c(c(/C=N/N5CCN(C)CC5)c(O)c4c3C2=O)NC(=O)/C(C)=C\C=C\[C@H](C)[C@H](O)[C@@H](C)[C@@H](O)[C@@H](C)[C@H](OC(C)=O)[C@@H]1C [Rifampin, rifampin, reference compound]",MIC,[6]; [12],0.1 µM
same,% Hemolysis (200 μM),"human red blood cells; human, 1 h, 200 μM, pH 7.2",8.0%
"[H]/N=C(/N)N[C@H]1[C@H](O)[C@@H](O)[C@H](O[C@@H]2O[C@@H](C)[C@](O)(C=O)[C@H]2O[C@@H]2O[C@@H](CO)[C@H](O)[C@@H](O)[C@@H]2NC)[C@@H](N/C(N)=N\[H])[C@@H]1O [Streptomycin, streptomycin, reference compound]",MIC,"[9]; 168 h, read-out: Mtb MIC",1.32 µM
same,MIC,"[9]; Table 7, read-out: MIC, M. tuberculosis H37Ra",1.32 µM
"CN(C)[C@@H]1C(O)=C(C(N)=O)C(=O)[C@@]2(O)C(O)=C3C(=O)c4c(O)cccc4[C@@](C)(O)[C@H]3C[C@@H]12 [Tetracyc., tetracycline, reference compound]",Fold Δ (Cu^2+),MRSA-2; [14],n.a. (insignificant changes in MIC values (<2-fold changes))
same,Fold Δ (Fe^2+),MRSA-2; [14],+16
same,MIC,"MRSA-2; Staphylococcus aureus, MRSA-2, 200 μM copper(II), read-out: MIC with Cu^2+",1.56 µM
same,MIC,"MRSA-2; Staphylococcus aureus, MRSA-2, 200 μM iron(II), read-out: MIC with Fe^2+",18.8 µM
same,MIC,"MRSA-2; Staphylococcus aureus, MRSA-2, no additive (Table 9), read-out: MIC",1.17 µM
